According to US5670506A, “Halogen, isothiocyanate or azide substituted xanthines” (Cell Therapeutics, Inc., priority 1993, dated 1997):

Columns and labels:
Assay type in all cases: cell-based
[1] = test system: Ras-transformed 3T3 cells (IL-1-induced signal transduction via the Type I IL-1 receptor); experiment: DAG and PA generated after stimulation of Ras-transformed 3T3 cells with IL-1β; details: FIGS. 11 and 12, IL-1β stimulation
Source text: FIGS. 11 and 12 show the effects of CT1595 on the amount of DAG (diacylglycerol) (FIG. 11) and PA (Phosphatidic acid) (FIG. 12) generated at different times after stimulation of Ras-transformed 3T3 cells with IL-1β. CT1595 is a potent drug to inhibit enzyme activity that generates PA and then DAG by inhibiting IL-1-induced signal transduction, through this second messenger pathway, via the Type I IL-1 receptor. The inhibiting activity was not in a dose-response manner, indication that the IC50 concentration for inhibiting cellular second messenger signaling is probably below 500 nM.
One in vitro assay measures inhibition of the relevant enzymes lysophosphatidic acid acyltransferase (LPAAT) and phosphatidic acid phosphoryl hydrolase (PAPH). […] It is important to note that the assay method permits discrimination between various forms of PA and DAG so that those relevant to the pathway affected by the (R) or (S) compounds of the invention can be measured directly. […] Thus, the relevant unsaturated (non-arachidonic) PA and DAG subspecies may be detected. […]

[2] = test system: transformed cells (Ras 3T3) and normal 3T3 cells; experiment: cytotoxicity in transformed and normal 3T3 cells
Protocol: A similar experiment is shown in FIG. 9 for five inventive compounds (see Table 1 […] for chemical names) showing differential cytotoxicity for the same normal and transformed cells.
Each inventive compound is investigated for cytotoxicity to determine appropriate doses for biological activity assays and to prevent cytotoxic reactions in in vitro assays when characterizing activity. Cells (e.g., NIH-3T3, Ras transformed 3T3 cells, malignant melanoma LD2 cells, etc.) are added to microtiter plates and drug is added about two days after plating. Cell viability is determined using a fluorescent viability stain (e.g., 2',7'-bis-(2-carboroxyethyl)-5-(and -6)-carboxyfluorescein acetoxymethyl ester, BCECF excitation 488 nm and emission 525 nm) 24, 48 or 72 hours after addition of the drug.
This example illustrates a comparison of cytotoxicity determinations for CT1595 in transformed cells (Ras 3T3) and in normal 3T3 cells at drug doses of 1, 10 and 100 μM in in vitro cell culture conditions (FIG. 8). […] A similar experiment is shown in FIG. 9 for five inventive compounds (see Table 1 above for chemical names) showing differential cytotoxicity for the same normal and transformed cells.

[3] = test system: PBMC (peripheral blood mononuclear cells); experiment: two-way mixed lymphocyte reaction (MLR), immune suppression; details: Homo sapiens, 144 h, allogeneic stimulation of PBMC, 6 days
Source text: Various in vitro assays can be used to measure effects of the inventive compounds to module immune activity and have antitumor activity using a variety of cellular types. For example, a mixed lymphocyte reaction (MLR) provides a valuable screening tool to determine biological activity of each inventive compound. In the MLR, PBMCs (peripheral blood mononuclear cells) are obtained by drawing whole blood from healthy volunteers in a heparinized container and diluted with an equal volume of hanks balanced salt solution (HBSS). This mixture is layered on a sucrose density gradient, such as a Ficoll-Hypaque® gradient (specific gravity 1.08), and centrifuged at 1000× g for 25 minutes at room temperature or cooler. PBMC are obtained from a band at a plasma-Ficoll interface, separated and washed at least twice in a saline solution, such as HBSS. Contaminating red cells are lysed, such as by ACK lysis for 10 rain at 37° C., and the PBMCs are washed twice in HBSS. The pellet of purified PBMCs is resuspended in complete medium, such as RPMI 1640 plus 20% human inactivated serum. Proliferative response of PBMC to allogeneic stimulation is determined in a two-way MLR performed in a 96-well microtiter plate. […] At the conclusion of the incubation tritiated thymidine is added (for example, 1 μCi/well of 40 to 60 Ci/mmole) and proliferation determined by liquid scintillation counting. […]

[4] = test system: mast cell line (PT-18); experiment: total PA mass in mast cell line stimulated by IgE and DNP; details: FIG. 13; IgE and DNP stimulation, in words

Compound: Cn1cnc2c1c(=O)n(CCCCC(=O)CCl)c(=O)n2C [CT1595, 1-(6-chloro-5-oxohexyl)-3,7-dimethylxanthine]
- inhibition of DAG and PA generation ([1]; in words): the overall signal is being significantly inhibited
- IC50 ([1]; Mus musculus, NIH3T3, "probably" below, read-out: IC50 for inhibiting cellular second messenger signaling): < 0.5 µM
- differential cytotoxicity, transformed vs normal 3T3 cells ([2]; FIG. 8, 1, 10 and 100 μM): more cytotoxic for the cancer cell than the normal cell
- cytotoxic activity, normal and transformed 3T3 cells ([2]; FIG. 9, five compounds): significant cytotoxic activity
- IC50 [3]: < 10 µM
- IC50 for accumulation of PA [4]: low nanomolar range
